From US20050090529A1, “3,5 Disubstituted indazole compounds with nitrogen-bearing 5-membered heterocycles, pharmaceutical compositions, and methods for mediating or inhibiting cell proliferation” (PFIZER INC, priority 2003, published 2005) come the findings set out here.

Converted amounts (≈) assume the structure as drawn.

Data set [1] can be described thus: Measurement of kinetic solubility. The following applies: 100 mM sodium phosphate buffer, pH 6.5, aqueous buffer, kinetic from dmso stock. As to the method:
Kinetic solubility was determined with a […] stock solution from the compound(s) of interest. […] Samples and standards were then centrifuged and an aliquot was removed for HPLC analysis. Samples and standards were analyzed by HPLC and a final concentration for the sample was determined based on a one-point calibration curve from the corresponding standard. Results were reported as μg's/mL.

Another data set addresses T1, CDK2/Cyclin A (Homo sapiens, UniProt P24941).
T1 construct: made in house; host or cells: CDK2: insect cells (baculovirus); cyclin A: E. coli
Nature of the data set: Inhibition of CDK2/Cyclin A retinoblastoma kinase activity (apparent Ki). Type of data set: biochemical. As to conditions: read-out: CDK2 Ki. An outline of the steps:
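Cyclin A complex (proteolyzed cyclin) purified by gel filtration; enzyme-initiated reactions ran 20 min at 30 °C, transferring radiolabelled phosphate from [32P]/[33P]ATP onto a protein substrate, stopped with EDTA and quantified by phosphorimager.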

In the case of `CCNCc1cncc(-c2ccc3[nH]nc(-c4ncc(C(=O)N5CC=C(c6ccccc6)CC5)[nH]4)c3c2)c1C` [Example 67, N-{[4-methyl-5-(3-{5-[(4-phenyl-3,6-dihydropyridin-1(2H)-yl)carbonyl]-1H-imidazol-2-yl}-1H-indazol-5-yl)pyridin-3-yl]methyl}ethanamine], in data set [1], the solubility lay within 20 to 120 µg/mL (≈ 38.6 to 232 µM). Further, the Ki at CDK2/Cyclin A was below 0.05 µM.

Turning to `CCNCc1cncc(-c2ccc3[nH]nc(-c4ncc(C(=O)N5Cc6ccccc6C5)[nH]4)c3c2)c1C` [Example 68, N-[(5-{3-[5-(1,3-dihydro-2H-isoindol-2-ylcarbonyl)-1H-imidazol-2-yl]-1H-indazol-5-yl}-4-methylpyridin-3-yl)methyl]ethanamine], the solubility in data set [1] is below 20 µg/mL. For the same compound, the Ki on CDK2/Cyclin A is below 0.05 µM.

`CCNCc1cncc(-c2ccc3[nH]nc(-c4ncc(C(=O)N5CCN(c6ccc(F)cc6F)CC5)[nH]4)c3c2)c1C` [Example 69, N-({5-[3-(5-{[4-(2,4-difluorophenyl)piperazin-1-yl]carbonyl}-1H-imidazol-2-yl)-1H-indazol-5-yl]-4-methylpyridin-3-yl}methyl)ethanamine]: the solubility in data set [1] was in the range of 20 to 120 µg/mL (≈ 35.9 to 216 µM). Also, the Ki on CDK2/Cyclin A was below 0.05 µM.

`CCNCc1cncc(-c2ccc3[nH]nc(-c4ncc(C(=O)N5CCC6CCCCC6C5)[nH]4)c3c2)c1C` (stereo not drawn) [Example 71, N-[(4-methyl-5-{3-[5-(octahydroisoquinolin-2(1H)-ylcarbonyl)-1H-imidazol-2-yl]-1H-indazol-5-yl}pyridin-3-yl)methyl]ethanamine] returned a solubility in data set [1] of 20 to 120 µg/mL (≈ 40.2 to 241 µM). On CDK2/Cyclin A, the Ki was below 0.05 µM.

Regarding `CCNCc1cncc(-c2ccc3[nH]nc(-c4ncc(C(=O)NC5C6CC7CC(C6)CC5C7)[nH]4)c3c2)c1C` (stereo not drawn) [Example 72, N-2-adamantyl-2-(5-{5-[(ethylamino)methyl]-4-methylpyridin-3-yl}-1H-indazol-3-yl)-1H-imidazole-5-carboxamide], the solubility in data set [1] is below 20 µg/mL. For the same compound, the Ki at CDK2/Cyclin A was below 0.05 µM.

In data set [1], `CCNCc1cncc(-c2ccc3[nH]nc(-c4nc(C(=O)N5CCCCCC5)c[nH]4)c3c2)c1C` [Example 74, N-[(5-{3-[5-(azepan-1-ylcarbonyl)-1H-imidazol-2-yl]-1H-indazol-5-yl}-4-methylpyridin-3-yl)methyl]ethanamine] had a solubility above 120 µg/mL. On CDK2/Cyclin A, the Ki was below 0.05 µM.

In data set [1], `CCNCc1cncc(-c2ccc3[nH]nc(-c4ncc(C(=O)N[C@H]5CCCCNC5=O)[nH]4)c3c2)c1C` [Example 75, 2-(5-{5-[(ethylamino)methyl]-4-methylpyridin-3-yl}-1H-indazol-3-yl)-N-[(3S)-2-oxoazepan-3-yl]-1H-imidazole-5-carboxamide] showed a solubility above 120 µg/mL. Further, the Ki at CDK2/Cyclin A was below 0.05 µM.

In data set [1], `CCNCc1cncc(-c2ccc3[nH]nc(-c4nc(C(=O)NC5CCNCC5)c[nH]4)c3c2)c1C` [Example 76, 2-(5-{5-[(ethylamino)methyl]-4-methylpyridin-3-yl}-1H-indazol-3-yl)-N-piperidin-4-yl-1H-imidazole-5-carboxamide] registered a solubility above 120 µg/mL. Besides, on CDK2/Cyclin A, the Ki fell in the range of 0.05 to 0.2 µM.

Take `CCNCc1cncc(-c2ccc3[nH]nc(-c4nc(C(=O)NC5CC6CCC(C5)N6)c[nH]4)c3c2)c1C` (stereo not drawn) [Example 77, N-8-azabicyclo[3.2.1]oct-3-yl-2-(5-{5-[(ethylamino)methyl]-4-methylpyridin-3-yl}-1H-indazol-3-yl)-1H-imidazole-5-carboxamide]: the solubility in data set [1] was above 120 µg/mL. On CDK2/Cyclin A, the Ki was above 0.2 µM.

For the compound `CCNCc1cncc(-c2ccc3[nH]nc(-c4ncc(C(=O)N5CCN(Cc6ccccn6)CC5)[nH]4)c3c2)c1C` [Example 83, N-({4-methyl-5-[3-(5-{[4-(pyridin-2-ylmethyl)piperazin-1-yl]carbonyl}-1H-imidazol-2-yl)-1H-indazol-5-yl]pyridin-3-yl}methyl)ethanamine], in data set [1], the solubility is above 120 µg/mL. For the same compound, at CDK2/Cyclin A, the Ki was below 0.05 µM.

For `CCNCc1cncc(-c2ccc3[nH]nc(-c4ncc(C(=O)N5CCC(Cc6ncccn6)CC5)[nH]4)c3c2)c1C` [Example 85, N-({4-methyl-5-[3-(5-{[4-(pyrimidin-2-ylmethyl)piperidin-1-yl]carbonyl}-1H-imidazol-2-yl)-1H-indazol-5-yl]pyridin-3-yl}methyl)ethanamine], the solubility in data set [1] is above 120 µg/mL. The Ki at CDK2/Cyclin A is below 0.05 µM.

For `CCNCc1cncc(-c2ccc3[nH]nc(-c4nc(C(=O)O)c[nH]4)c3c2)c1C` [Example 86, 2-(5-{5-[(ethylamino)methyl]-4-methylpyridin-3-yl}-1H-indazol-3-yl)-1H-imidazole-5-carboxylic acid], the solubility in data set [1] is above 120 µg/mL. Moreover, at CDK2/Cyclin A, the Ki fell in the range of 0.05 to 0.2 µM.

As for `CCNCc1cncc(-c2ccc3[nH]nc(-c4cnco4)c3c2)c1C` [Example 87, N-({4-methyl-5-[3-(1,3-oxazol-5-yl)-1H-indazol-5-yl]pyridin-3-yl}methyl)ethanamine], the solubility in data set [1] is above 120 µg/mL. The Ki on CDK2/Cyclin A was 0.05 to 0.2 µM.

Consider `CCNCc1cncc(-c2ccc3[nH]nc(-c4cnc[nH]4)c3c2)c1C` [Example 90, N-({5-[3-(1H-imidazol-5-yl)-1H-indazol-5-yl]-4-methylpyridin-3-yl}methyl)ethanamine], for which the solubility in data set [1] is above 120 µg/mL. The Ki on CDK2/Cyclin A was below 0.05 µM.

Consider `c1c[nH]c(-c2n[nH]c3ccc(-c4cncc5[nH]ccc45)cc23)n1` [Example 94, 3-(1H-Imidazol-2-yl)-5-(1H-pyrrolo[2,3-c]pyridin-4-yl)-1H-indazole], for which the solubility in data set [1] was 20 to 120 µg/mL (≈ 66.6 to 400 µM). In addition, the Ki on CDK2/Cyclin A was below 0.05 µM.

Turning to `c1ncc(-c2n[nH]c3ccc(-c4cncc5[nH]ccc45)cc23)[nH]1` [Example 95, 3-(3H-Imidazol-4-yl)-5-(1H-pyrrolo[2,3-c]pyridin-4-yl)-1H-indazole], the solubility in data set [1] lay in the range of 20 to 120 µg/mL (≈ 66.6 to 400 µM). Besides, the Ki at CDK2/Cyclin A was below 0.05 µM.

The compound `CCNCc1cncc(-c2ccc3[nH]nc(-c4cnc(-c5ccncc5)[nH]4)c3c2)c1C` [Example 96, Ethyl-{4-methyl-5-[3-(2-pyridin-4-yl-3H-imidazol-4-yl)-1H-indazol-5-yl]-pyridin-3-ylmethyl}-amine] showed a solubility in data set [1] above 120 µg/mL. The Ki at CDK2/Cyclin A was in the range of 0.05 to 0.2 µM.

`CCNCc1cncc(-c2ccc3[nH]nc(C(N)=O)c3c2)c1C` [Example 97, 5-(5-Ethylaminomethyl-4-methyl-pyridin-3-yl)-1H-indazole-3-carboxylic acid amide] showed a solubility in data set [1] above 120 µg/mL. In addition, the Ki on CDK2/Cyclin A is 0.05 to 0.2 µM.

As a reminder, the solubility is the concentration that dissolves in the medium under given conditions.
